According to ChEMBL document CHEMBL1139745, “Synthesis and biological study of 4-aminopyrimidine-5-carboxaldehyde oximes as antiproliferative VEGFR-2 inhibitors” (Bioorg Med Chem Lett, 2006):

Tests used:
HeLa [1] = assay: Antiproliferative activity against HeLa cells; format: functional, cell-based; conditions: Homo sapiens
HCT-116 = assay: Antiproliferative activity against HCT116 cells; format: functional, cell-based; conditions: Homo sapiens
A-375 = assay: Antiproliferative activity against A375 cells; format: functional, cell-based; conditions: Homo sapiens
[2] = biological target: Vascular endothelial growth factor receptor 2 (Homo sapiens, UniProt P35968); assay: Inhibition of VEGFR2
Vascular endothelial growth factor receptor 2, sequence (P35968 whole entry): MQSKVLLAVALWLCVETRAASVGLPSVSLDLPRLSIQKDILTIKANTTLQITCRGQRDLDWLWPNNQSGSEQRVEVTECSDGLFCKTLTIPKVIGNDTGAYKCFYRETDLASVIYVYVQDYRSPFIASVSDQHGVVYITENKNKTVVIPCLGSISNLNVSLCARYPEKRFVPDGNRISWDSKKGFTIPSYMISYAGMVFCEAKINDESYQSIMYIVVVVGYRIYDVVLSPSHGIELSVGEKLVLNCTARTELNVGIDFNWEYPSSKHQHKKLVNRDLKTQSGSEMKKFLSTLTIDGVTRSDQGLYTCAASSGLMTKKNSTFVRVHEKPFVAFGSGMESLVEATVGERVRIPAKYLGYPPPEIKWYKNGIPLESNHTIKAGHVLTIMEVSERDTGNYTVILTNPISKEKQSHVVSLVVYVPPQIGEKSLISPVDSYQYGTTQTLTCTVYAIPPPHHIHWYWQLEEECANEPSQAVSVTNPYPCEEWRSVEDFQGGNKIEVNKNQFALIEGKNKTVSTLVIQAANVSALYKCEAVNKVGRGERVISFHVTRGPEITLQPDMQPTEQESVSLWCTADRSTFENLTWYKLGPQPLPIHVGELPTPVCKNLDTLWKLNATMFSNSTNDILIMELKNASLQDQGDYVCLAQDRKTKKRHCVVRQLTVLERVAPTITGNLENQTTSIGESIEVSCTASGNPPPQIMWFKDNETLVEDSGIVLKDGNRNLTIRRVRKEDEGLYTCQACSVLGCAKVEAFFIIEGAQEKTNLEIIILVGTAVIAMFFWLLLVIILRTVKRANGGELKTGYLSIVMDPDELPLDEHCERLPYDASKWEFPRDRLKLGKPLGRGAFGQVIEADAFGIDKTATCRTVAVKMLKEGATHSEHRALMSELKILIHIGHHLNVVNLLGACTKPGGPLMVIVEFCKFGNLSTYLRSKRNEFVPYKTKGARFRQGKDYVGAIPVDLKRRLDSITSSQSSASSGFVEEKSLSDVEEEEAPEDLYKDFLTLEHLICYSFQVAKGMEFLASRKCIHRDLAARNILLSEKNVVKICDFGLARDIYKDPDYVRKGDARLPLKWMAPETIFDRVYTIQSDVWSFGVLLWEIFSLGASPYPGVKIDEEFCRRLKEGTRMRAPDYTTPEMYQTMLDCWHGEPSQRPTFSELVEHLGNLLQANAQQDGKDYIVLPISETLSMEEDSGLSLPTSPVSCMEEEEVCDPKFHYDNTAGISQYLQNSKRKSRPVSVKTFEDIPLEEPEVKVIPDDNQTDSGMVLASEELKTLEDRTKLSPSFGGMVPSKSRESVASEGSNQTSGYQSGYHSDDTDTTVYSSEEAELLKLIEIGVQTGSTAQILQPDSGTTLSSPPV

HeLa [3] = assay: Cell cycle arrest by accumulation at G2 phase in human HeLa cells at 62.5 nM; format: functional
HeLa [4] = assay: Cell cycle arrest in human HeLa cells by accumulation at G1 phase at 62.5 nM; format: functional
HeLa [5] = assay: Cell cycle arrest in human HeLa cells by accumulation at S phase at 62.5 nM; format: functional

| IC50 (HeLa [1]) | IC50 (HCT-116) | IC50 (A-375) | IC50 [2] | SMILES | Activity (HeLa [3]) | Activity (HeLa [4]) | Activity (HeLa [5]) |
| --- | --- | --- | --- | --- | --- | --- | --- |
| 22700 nM | 16100 nM | 4920 nM |  | Cc1cc2c(F)c(Oc3ncnc(N)c3/C=N/OCC3CCCCC3)ccc2[nH]1 |  |  |  |
| 375 nM | 749 nM | 326 nM |  | CO/N=C/c1c(N)ncnc1Oc1ccc2c(ccn2C)c1 |  |  |  |
| 1820 nM | 2620 nM | 886 nM |  | CO/N=C/c1c(N)ncnc1Oc1ccc2cccnc2c1 |  |  |  |
| 308 nM | 387 nM | 233 nM |  | COCCO/N=C/c1c(N)ncnc1Oc1ccc2[nH]c(C)cc2c1F |  |  |  |
| 3430 nM | 2870 nM | 1820 nM |  | CO/N=C/c1c(N)ncnc1Oc1ccc2ncccc2c1 |  |  |  |
| 406 nM | 323 nM | 372 nM |  | Cc1cc2c(F)c(Oc3ncnc(N)c3/C=N/OCCO)ccc2[nH]1 |  |  |  |
| 346 nM | 438 nM | 300 nM |  | COCCCO/N=C/c1c(N)ncnc1Oc1ccc2[nH]c(C)cc2c1F |  |  |  |
| 472 nM | 1140 nM | 492 nM | 33 nM | Cc1cc2c(F)c(Oc3ncnc(N)c3/C=N/O)ccc2[nH]1 |  |  |  |
| 42 nM | 40 nM | 21 nM |  | C=CCO/N=C/c1c(N)ncnc1Oc1ccc2[nH]c(C)cc2c1F | 99.76% | 0.24% | 0% |
| 362 nM | 452 nM | 336 nM |  | Cc1cc2c(F)c(Oc3ncnc(N)c3/C=N/OCCCO)ccc2[nH]1 |  |  |  |
| 4220 nM | 4610 nM | 2160 nM |  | Cc1cc2c(F)c(Oc3ncnc(N)c3/C=N/OCCN3CCCC3)ccc2[nH]1 |  |  |  |
| 388 nM | 386 nM | 356 nM |  | CO/N=C/c1c(N)ncnc1Oc1ccc2[nH]c(C)cc2c1 |  |  |  |
| 306 nM | 385 nM | 132 nM |  | CO/N=C/c1c(N)ncnc1Oc1ccc2[nH]cc(C)c2c1 |  |  |  |
| 2010 nM | 3010 nM | 345 nM |  | CNCCO/N=C/c1c(N)ncnc1Oc1ccc2[nH]c(C)cc2c1F |  |  |  |
| 382 nM | 422 nM | 327 nM |  | CO/N=C/c1c(N)ncnc1Oc1cc2cc[nH]c2cc1F |  |  |  |
| 32 nM | 36 nM | 27 nM |  | CCO/N=C/c1c(N)ncnc1Oc1ccc2[nH]c(C)cc2c1F |  |  |  |
| 607 nM | 1000 nM | 446 nM |  | CCCCO/N=C/c1c(N)ncnc1Oc1ccc2[nH]c(C)cc2c1F |  |  |  |
| 401 nM | 365 nM | 492 nM |  | CO/N=C/c1c(N)ncnc1Oc1ccc2[nH]ccc2c1F |  |  |  |
| 1870 nM | 3520 nM | 783 nM |  | CO/N=C/c1c(N)ncnc1Oc1ccc2[nH]ccc2c1 |  |  |  |
| 40 nM | 30 nM | 28 nM |  | CCCO/N=C/c1c(N)ncnc1Oc1ccc2[nH]c(C)cc2c1F |  |  |  |
| 266 nM | 311 nM | 62 nM |  | Cc1cc2c(F)c(Oc3ncnc(N)c3/C=N/OCc3ccccc3)ccc2[nH]1 |  |  |  |
